Test systems include RXF 393 renal; UACC-62 melanoma; DLD-1 colon; SNB-19 CNS; IGROV1 ovarian; HT29 colon; SK-MEL-5 melanoma; OVCAR-5 ovarian; MDA-MB-435; MDA-MB-231 breast; MCF7 breast; MDA-N.
Experiment in all cases: NCI anticancer screen, dose series, 48 h

The results in this text go back to PubChem BioAssay (NCI).

Several values for one entry are separate records, joined by “and”; a condition that tells them apart may be missing. Equal values may be shown once.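 All cell lines were grown in 96-well plates and treated with compound for 48 hours. At the GI50, growth is halved. The concentration for full growth arrest is given as TGI.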

On to `COc1ccc(C2Oc3cc(OC)c(O)c(C)c3[C@H]2C)cc1` (some centres not stated), for which the TGI in the test with RXF 393 renal, in the test with UACC-62 melanoma, in the test with DLD-1 colon, with SNB-19 CNS, with IGROV1 ovarian and in the test with HT29 colon was more than 100 µM each time. The TGI in the test on SK-MEL-5 melanoma and with OVCAR-5 ovarian was more than 100 µM throughout.

Take `c1ccc(C2=NOC3(c4ccccc4)SC4CCCCC4CN23)cc1` (configuration not stated): the TGI was 71.2 µM in the test on RXF 393 renal; 83.1 µM with UACC-62 melanoma; more than 100 µM in the test on DLD-1 colon; more than 100 µM in the test on SNB-19 CNS; 32.8 µM in the test with IGROV1 ovarian; more than 100 µM in the test with HT29 colon. For the same molecule, the TGI was 28.7 µM in the test with SK-MEL-5 melanoma and more than 100 µM in the test with OVCAR-5 ovarian.

With `CC(=O)c1ccc2c(ccc(=O)n2C)c1`, the TGI with UACC-62 melanoma, with DLD-1 colon, in the test with SNB-19 CNS, with IGROV1 ovarian, with HT29 colon and with SK-MEL-5 melanoma was more than 100 µM in each case. Besides, the TGI with OVCAR-5 ovarian is more than 100 µM.

Turning to `C=C1C(=O)OC2/C=C(/C)C3CC(O)C(C)(CC(OC(=O)/C(C)=C/C)C12)O3` (configuration not stated), the TGI in the test on RXF 393 renal is 3.49 µM; with UACC-62 melanoma, 5.22 µM; in the test with DLD-1 colon, 3.12 µM; with SNB-19 CNS, 30.8 µM; in the test on IGROV1 ovarian, 18.7 µM; in the test with HT29 colon it was 13.1 µM. Moreover, the TGI in the test with SK-MEL-5 melanoma came to 16.2 µM; in the test with OVCAR-5 ovarian it was 21.6 µM.

Turning to `CC(C)(C)NC(=O)NC12CC3CC(CC(F)(C3)C1)C2`, the TGI in the test on RXF 393 renal, in the test on UACC-62 melanoma, in the test with DLD-1 colon, in the test with SNB-19 CNS, with IGROV1 ovarian and with HT29 colon was more than 100 µM each time. The molecule further came in with a TGI in the test on OVCAR-5 ovarian of more than 100 µM.

For `Clc1ccccc1C1=NN(c2ccccc2)C2c3ccccc3OCC12` (configuration not stated), the TGI in the test with RXF 393 renal, in the test on DLD-1 colon, in the test on SNB-19 CNS, in the test with IGROV1 ovarian, in the test on HT29 colon and in the test on SK-MEL-5 melanoma was more than 100 µM in each case. In addition, the TGI in the test with OVCAR-5 ovarian was more than 100 µM.

In the case of `CCN1C[C@]2(C)CC[C@H](OC)C34C1C([C@H](OC(C)=O)[C@@H]32)[C@@]1(OC)C[C@H](OC)[C@H]2C[C@@H]4[C@@H]1[C@H]2O`, the TGI with RXF 393 renal, in the test on UACC-62 melanoma, with DLD-1 colon, in the test with SNB-19 CNS, with IGROV1 ovarian and with HT29 colon was more than 100 µM each time. Besides, the TGI in the test on SK-MEL-5 melanoma and in the test with OVCAR-5 ovarian was more than 100 µM each time.

For the molecule `CS(=O)(=O)c1c(N)c2nc(Cl)cn2c2nc3ccccc3nc12`, the TGI in the test with UACC-62 melanoma, with DLD-1 colon, in the test with SNB-19 CNS, in the test on IGROV1 ovarian, in the test with HT29 colon and with SK-MEL-5 melanoma was more than 100 µM each time. Besides, the TGI in the test with OVCAR-5 ovarian is more than 100 µM.

In the case of `CN(CCO)c1nc(N)cc(=O)[nH]1`, the TGI with RXF 393 renal, in the test with UACC-62 melanoma, with DLD-1 colon, in the test on SNB-19 CNS, with IGROV1 ovarian and in the test with HT29 colon was more than 100 µM in each case. In addition, the TGI in the test on SK-MEL-5 melanoma and with OVCAR-5 ovarian was more than 100 µM each time.

With `COC1C(O)C(C)OC(OC2C(Oc3cccc4c(O)c5c(=O)oc6ccc(C)c7c(=O)oc(c34)c5c67)OC(C)C(O)C2O)C1O` (configuration not stated), the TGI with MDA-MB-435 is 8.29 µM; with RXF 393 renal, 2.6 µM and 3.37 µM; with MDA-MB-231 breast, 8.67 µM; in the test on UACC-62 melanoma it was 3.26 µM and 3.56 µM; with MCF7 breast it was 21.6 µM and 6.89 µM; in the test with DLD-1 colon, 14.9 µM. Further, the TGI in the test with SNB-19 CNS is 26.6 µM and 14.4 µM; in the test on IGROV1 ovarian, > 69.9 µM and 12.9 µM; with HT29 colon it was 13.8 µM; in the test with MDA-N it was 6.88 µM; in the test on SK-MEL-5 melanoma it was 6.38 µM and 4.19 µM; in the test with OVCAR-5 ovarian it was 30.8 µM and 15.6 µM. Further, the GI50 in the test on RXF 393 renal was 0.536 µM; in the test with UACC-62 melanoma it was 1.35 µM; in the test on MCF7 breast it was 1.61 µM; in the test with SNB-19 CNS, 0.632 µM and 1.21 µM; with IGROV1 ovarian, 3.08 µM; in the test on HT29 colon, 1.94 µM. Further, the GI50 with SK-MEL-5 melanoma was 1.91 µM; with OVCAR-5 ovarian, 6.91 µM.

With `CC(C)(C)c1cc2c(O)c(c1)Cc1cc(C(C#N)(Cc3ccc4ccccc4c3)Cc3ccc4ccccc4c3)cc(c1O)Cc1cc(C(C)(C)C)cc(c1O)Cc1cc(C(C#N)(Cc3ccc4ccccc4c3)Cc3ccc4ccccc4c3)cc(c1O)C2`, the TGI with MDA-MB-435, in the test with RXF 393 renal, with MDA-MB-231 breast, in the test on UACC-62 melanoma, in the test with MCF7 breast and in the test on SNB-19 CNS was more than 100 µM throughout. The TGI in the test on IGROV1 ovarian, in the test with HT29 colon, with MDA-N, in the test on SK-MEL-5 melanoma and with OVCAR-5 ovarian was more than 100 µM throughout.

In the case of `CC(C)OP(=O)(OC(C)C)/C(C#N)=C/c1ccco1`, the TGI in the test on MDA-MB-435, in the test with RXF 393 renal, in the test on MDA-MB-231 breast, in the test on UACC-62 melanoma, in the test on MCF7 breast and in the test with SNB-19 CNS was more than 100 µM each time. The TGI in the test with IGROV1 ovarian, in the test with HT29 colon, with MDA-N, with SK-MEL-5 melanoma and in the test on OVCAR-5 ovarian was more than 100 µM each time.

`CCOC(=O)c1sc(N/N=C2\NC(=O)/C(=C/c3ccc([N+](=O)[O-])cc3)S2)nc1C`: the TGI in the test with MDA-MB-435 was 77.3 µM; in the test on RXF 393 renal, 84 µM; with MDA-MB-231 breast, 49.2 µM; in the test with UACC-62 melanoma, 73.4 µM; in the test on MCF7 breast, 72.5 µM; in the test on SNB-19 CNS, more than 100 µM. Besides, the TGI was 35.4 µM in the test with IGROV1 ovarian; 51 µM in the test with HT29 colon; 56.2 µM in the test on MDA-N; 31 µM in the test with SK-MEL-5 melanoma; more than 100 µM with OVCAR-5 ovarian.

On to `CC=CCOc1cc(NC(=S)OC(C)C)ccc1Cl` (mixture of isomers), for which the TGI was 49.9 µM in the test with MDA-MB-435; 30.8 µM with RXF 393 renal; 51.5 µM in the test with MDA-MB-231 breast; 30.7 µM with UACC-62 melanoma; 38.2 µM with MCF7 breast; 56.6 µM in the test with SNB-19 CNS. Besides, the TGI in the test on IGROV1 ovarian worked out at 43.2 µM; with HT29 colon, 28.7 µM; in the test with MDA-N it was 35.4 µM; in the test on SK-MEL-5 melanoma, 33.1 µM; in the test on OVCAR-5 ovarian, 44.5 µM.

As to `CC(C)(C)OC(=O)N(O)CCCn1cnc2c(N)ncnc21`, the TGI with MDA-MB-435, in the test with RXF 393 renal, in the test on MDA-MB-231 breast, with UACC-62 melanoma, in the test on MCF7 breast and in the test with SNB-19 CNS was more than 100 µM each time. For the same molecule, the TGI in the test with IGROV1 ovarian, in the test with HT29 colon, in the test on MDA-N, in the test on SK-MEL-5 melanoma and in the test on OVCAR-5 ovarian was more than 100 µM in each case.

In the case of `N#CC(=C1CCCCC1)c1nc2ccccc2o1`, the TGI in the test on MDA-MB-435, in the test on RXF 393 renal, in the test on MDA-MB-231 breast, with UACC-62 melanoma, with MCF7 breast and in the test on SNB-19 CNS was more than 100 µM in each case. In addition, the TGI in the test on IGROV1 ovarian, in the test on HT29 colon, with MDA-N, with SK-MEL-5 melanoma and with OVCAR-5 ovarian was more than 100 µM each time.

As to `O=C1N2CCc3c([nH]c4ccccc34)C23CC2CCCCC12S3` (configuration not stated), the TGI in the test on MDA-MB-435, with RXF 393 renal, in the test with MDA-MB-231 breast, in the test with UACC-62 melanoma, with MCF7 breast and in the test with SNB-19 CNS was more than 100 µM throughout. In addition, the TGI in the test with IGROV1 ovarian, with HT29 colon, in the test on MDA-N, in the test on SK-MEL-5 melanoma and with OVCAR-5 ovarian was more than 100 µM in each case.

Regarding `CCCC(=O)O[C@H]1C=C2C[C@@]34SS[C@]5(CC6=C[C@H](OC(C)=O)[C@@H]7O[C@@H]7[C@H]6N5C3=O)C(=O)N4[C@@H]2[C@H]2O[C@H]21`, the TGI was determined as 0.0241 µM in the test on MDA-MB-435; 0.0713 µM in the test on RXF 393 renal; 0.246 µM with MDA-MB-231 breast; 0.0851 µM in the test on UACC-62 melanoma; 0.226 µM with MCF7 breast; 1.43 µM with SNB-19 CNS. The TGI with IGROV1 ovarian was found to be 0.0499 µM; in the test with HT29 colon, 0.0166 µM; in the test with MDA-N it was 0.0314 µM; in the test with SK-MEL-5 melanoma, 0.655 µM; in the test on OVCAR-5 ovarian, 0.251 µM.

`O=C1O[C@H]2[C@H](O)[C@@H](OC(=O)c3cc(O)c(O)c4c3[C@@H]3C1=CC(=O)C(O)(O)C3(O)O4)[C@H](OC(=O)c1cc(O)c(O)c(O)c1)O[C@@H]2CO` (some centres not stated): the TGI with MDA-MB-435, with RXF 393 renal, with MDA-MB-231 breast, in the test on UACC-62 melanoma, with MCF7 breast and in the test with SNB-19 CNS was more than 100 µM throughout. The TGI in the test with IGROV1 ovarian, in the test on HT29 colon, in the test on MDA-N, with SK-MEL-5 melanoma and in the test on OVCAR-5 ovarian was more than 100 µM in each case.
